Data as given in patent US9890139B2, “CYP17 inhibitors/antiandrogens” (Orion Corporation, priority 2013, dated 2018).
Where two headings read alike, the source gives them in different places.

Legend:
[1] = biological target: T1, 17,20 lyase (CYP17) (Homo sapiens, UniProt P05093); experiment: 17,20 lyase (CYP17) inhibition, acetic acid release assay (AARA) on H295R cells; assay type: cell-based
T1 construct: endogenous in cells; host or cells: H295R human adrenocortical carcinoma cells
T1 sequence (P05093 1-508): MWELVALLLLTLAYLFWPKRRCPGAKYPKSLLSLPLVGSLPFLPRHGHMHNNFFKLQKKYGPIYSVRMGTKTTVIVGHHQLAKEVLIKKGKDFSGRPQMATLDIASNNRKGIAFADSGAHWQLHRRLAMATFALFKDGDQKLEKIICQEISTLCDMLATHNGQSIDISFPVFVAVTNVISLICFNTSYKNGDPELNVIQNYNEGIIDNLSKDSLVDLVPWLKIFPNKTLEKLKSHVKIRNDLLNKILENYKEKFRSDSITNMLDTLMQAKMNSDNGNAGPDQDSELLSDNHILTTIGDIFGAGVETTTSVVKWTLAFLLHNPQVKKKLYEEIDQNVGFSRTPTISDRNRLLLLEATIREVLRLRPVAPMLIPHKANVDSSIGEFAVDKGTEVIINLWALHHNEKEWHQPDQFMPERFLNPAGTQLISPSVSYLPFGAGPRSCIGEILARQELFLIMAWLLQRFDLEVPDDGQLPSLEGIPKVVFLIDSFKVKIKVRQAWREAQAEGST
Method: The ability of the test compounds to inhibit 17,20 lyase catalysed conversion of 17α-hydroxypregnenolone to dehydroepiandrosterone and acetic acid was measured by acetic acid release assay (AARA) on human H295R adrenocortical carcinoma cell line (Grigoryev, D. N. et al., Analytical Biochemistry 1999; 267:319-330). […] The final DMSO concentration was 1%. Cell culture medium was extracted with dextran-coated charcoal suspension (Isomaa, V. et al., Endocrinology 1982; 111(3):833-843). ^3H-acetic acid was determined by mixing 100 μl of supernatant fraction in 200 μl of scintillation fluid (OptiPhase SuperMix, Perkin Elmer). Radioactivity was measured using a Microbeta scintillation counter (1450 MicroBeta Trilux, Wallac). All the test compounds were studied in quadruplicates.

[2] = biological target: T2, full-length human AR (Homo sapiens, UniProt P10275); experiment: AR antagonism, reporter gene assay in hAR/HEK293 cells; assay type: cell-based; settings: HEK293 cells stably transfected with full-length human AR and androgen responsive luciferase reporter; co-treated with submaximal testosterone (usually 0.45 nM); 1% DMSO; triplicates
T2 construct: expression vector encoding full-length human AR; expressed in transfected cells; host or cells: HEK293 (hAR/HEK293 cells)
T2 sequence (P10275 1-920): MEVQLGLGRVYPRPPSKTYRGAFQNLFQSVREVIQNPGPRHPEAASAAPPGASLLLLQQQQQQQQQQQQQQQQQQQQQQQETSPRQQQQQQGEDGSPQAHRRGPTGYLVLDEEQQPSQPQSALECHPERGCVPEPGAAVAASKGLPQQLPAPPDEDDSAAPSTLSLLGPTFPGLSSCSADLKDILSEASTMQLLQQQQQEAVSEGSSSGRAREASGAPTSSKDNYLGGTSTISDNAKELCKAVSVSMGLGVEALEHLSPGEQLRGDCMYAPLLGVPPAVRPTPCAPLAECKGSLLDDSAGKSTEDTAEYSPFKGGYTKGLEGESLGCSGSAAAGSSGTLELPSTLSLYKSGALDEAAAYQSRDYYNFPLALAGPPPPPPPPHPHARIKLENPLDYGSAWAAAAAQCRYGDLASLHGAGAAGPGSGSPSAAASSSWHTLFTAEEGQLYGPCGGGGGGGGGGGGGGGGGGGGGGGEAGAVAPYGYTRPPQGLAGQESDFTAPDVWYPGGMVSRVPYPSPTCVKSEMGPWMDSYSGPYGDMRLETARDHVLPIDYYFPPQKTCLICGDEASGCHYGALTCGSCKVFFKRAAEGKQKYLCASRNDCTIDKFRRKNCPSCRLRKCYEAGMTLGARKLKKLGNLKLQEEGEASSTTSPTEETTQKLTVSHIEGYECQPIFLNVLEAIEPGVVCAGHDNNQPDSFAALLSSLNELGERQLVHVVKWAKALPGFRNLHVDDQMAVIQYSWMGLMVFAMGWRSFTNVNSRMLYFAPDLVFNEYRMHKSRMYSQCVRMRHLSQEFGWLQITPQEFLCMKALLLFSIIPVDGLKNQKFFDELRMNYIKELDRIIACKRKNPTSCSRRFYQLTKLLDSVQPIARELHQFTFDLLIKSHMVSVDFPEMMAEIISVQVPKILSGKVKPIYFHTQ
Method: Antagonism of test compounds for AR was measured by reporter gene assay in human embryonic kidney (HEK293) cells stably transfected with an expression vector encoding full-length human AR and androgen responsive luciferase reporter gene construct (hAR/HEK293 cells). To determine antagonism for hAR, the cells were treated simultaneously with increasing concentrations of the test compound and submaximal concentration of testosterone (usually 0.45 nM). The final DMSO concentration was 1%. All test compounds were studied in triplicates. The cells were incubated for […] before measurement of luciferase activity using Luciferase Assay System (Promega Corporation).

Row | SMILES | IC50 [1] [µM] | IC50 [2] [µM] | IC50 ([1]; human H295R adrenocortical carcinoma cells, overnight (16-19 h) with 17α-[21-3H]hydroxypregnenolone, 3H-acetic acid release, 1% DMSO, quadruplicates, read-out: CYP17 inhibition IC50) [µM]
1 | CCN(c1ccc(C#N)c(Cl)c1)C1CC=C(c2cncn2CC)C1 (racemic) [Ex. 227 racemate, 2-Chloro-4-(ethyl(3-(1-ethyl-1H-imidazol-5-yl)cyclopent-3-en-1-yl)amino)-benzonitrile] | 0.019 | 0.057 | 
2 | CCN(c1ccc(C#N)c(C(F)(F)F)c1)[C@H]1CCC[C@@H](c2ccncc2)C1 (relative stereo) [Ex. 61, cis-4-(Ethyl(3-(pyridin-4-yl)cyclohexyl)amino)-2-(trifluoromethyl)benzonitrile] | 0.108 | 0.035 | 
3 | COc1cc(N(C)C2C=C(n3ccnc3)CCC2(C)C)ccc1C#N (centres unmarked) [Ex. 252, 4-{[3-(1H-Imidazol-1-yl)-6,6-dimethylcyclohex-2-enyl](methyl)amino}-2-methoxybenzonitrile] |  | 0.141 | 0.033
4 | CCN(c1ccc(C#N)c(C(F)(F)F)c1)C1CC=C(c2cncn2C2CC2)C1 (racemic) [Ex. 53, 4-((3-(1-Cyclopropyl-1H-imidazol-5-yl)cyclopent-3-enyl)(ethyl)amino)-2-(trifluoromethyl)benzonitrile] | 0.019 | 0.057 | 
5 | CCCn1cncc1C1=CCC(N(CC)c2ccc(C#N)c(C(F)(F)F)c2)C1 (centres unmarked) [Ex. 103, 4-(Ethyl(3-(1-propyl-1H-imidazol-5-yl)cyclopent-3-en-1-yl)amino)-2-(trifluoromethyl)benzonitrile] | 0.029 | 0.058 | 
6 | CCn1cncc1C1=CCC(N(CC2CC2)c2ccc(C#N)c(C(F)(F)F)c2)C1 (racemic) [Ex. 226 racemate, 4-((Cyclopropylmethyl)(3-(1-ethyl-1H-imidazol-5-yl)cyclopent-3-en-1-yl)-amino)-2-(trifluoromethyl)benzonitrile] | 0.043 | 0.029 | 
7 | CCN(c1ccc(C#N)c(C(F)(F)F)c1)C1CC(n2ccnc2)CCC1(C)C (single isomer, unassigned) [Ex. 46 cis-enantiomer 2, 4-((5-(1H-Imidazol-1-yl)-2,2-dimethylcyclohexyl)(ethyl)amino)-2-(trifluoromethyl)benzonitrile] | 0.049 | 0.04 | 
8 | CCN(c1ccc(C#N)c(C(F)(F)F)c1)C1CC=C(c2cncn2C(C)C)C1 (single isomer, unassigned) [Ex. 51 enantiomer 2, 4-(Ethyl(3-(1-isopropyl-1H-imidazol-5-yl)cyclopent-3-enyl)amino)-2-(trifluoromethyl)benzonitrile] | 0.166 | 0.017 | 
9 | CCN(c1ccc(C#N)c(C(F)(F)F)c1)C1CCC(n2ccnc2)C1 (single isomer, unassigned) [Ex. 86 trans-enantiomer 1, 4-((-3-(1H-imidazol-1-yl)cyclopentyl)(ethyl)amino)-2-(trifluoromethyl)benzonitrile] | 0.027 | 0.073 | 
10 | CCN(c1ccc(C#N)c(C(F)(F)F)c1)C1CC(CO)=C(n2ccnc2)C1(C)C (single isomer, unassigned) [Ex. 270 enantiomer 1, 4-(Ethyl(4-(hydroxymethyl)-3-(1H-imidazol-1-yl)-2,2-dimethylcyclopent-3-en-1-yl)amino)-2-(trifluoromethyl)benzonitrile] | 0.321 | 0.056 | 
